Where two headings read alike, the source gives them in different places.
Tests used:
PC3 cells = assay: Cell cycle analysis and BrdU pulse labeling in PC3 cells, FIG. 9-11; format: cell-based; settings: for cell cycle phenotype (in words): 15 μM
Description: Analysis of Cell Cycle Progression by FACS
Serum-Starved Synchronization
Cells were synchronized in G1 by serum starvation. Briefly, exponentially growing cells were plated overnight. Media (DMEM, 10% FBS, 1% Pen. Strep.) was then removed and replaced with media containing no FBS. Cells were starved for 72 hours then treated for 24 hours with inhibitor. Following treatment, cells were harvested and processed for endpoint experimental analysis.
Ethanol fixative was removed by centrifugation and the cells were washed with 1 mL ice-cold PBS/1% BSA. Cells were denatured by resuspending in 0.2 mg/mL pepsin in 2N HCl and incubated in 37° C. water bath for 15 minutes. Hydrolysis was then terminated by adding 1 M Invitrogen™ Novex® Tris-Glycine. Cells were then washed with PBS/1% BSA then the primary anti-BrdU antibody (1:100 dilution in TBFP; 0.5% Tween-20, 1% BSA, 1% FBS, PBS) was added and cells were incubated for 25 minutes in the dark, at room temperature. […] Cells were washed once more with PBS/1% BSA and re-suspended in DAPI for 30 minutes before being analyzed by flow cytometry.
The PLK1 PBD-inhibitors were analyzed further by cell cycle analysis in PC3 cells (FIG. 9). […] To quantify the percentage of cells actively proliferating (synthesizing their DNA) or arrested Bromodeoxyuridine (BrdU) pulse labeling was carried out and analyzed by flow cytometry.

[1] = tested on: mutant (C67V) PLK1 RPE cells; assay: Cell viability assay, PLK1 C67V mutant RPE cells; format: cell-based; settings: FIG. 6-8
Description: (§1) Retinal Pigment Epithelial (RPE) cells were maintained in 1:1 DMEM/Hams F-12 (Invitrogen™, Carlsebad, Calif.; Corning® Cellgro, Manassas, Va.), and supplemented with 10% FBS or Corning® Nu-Serum™ (BD™ Biosciences, Franklin Lakes, N.J.) and 1% penicillin/streptomycin (Invitrogen™) in a humidified incubator and 5% C02 at 37° C.
(§2) Exponentially growing cells were plated in 96-well dishes. Dose response curves were used to treat cells for 72 hours with inhibitors. Following the three-day treatment, cell viability was measured using the MTT (3-(4,5-dimethylthiazol-2-yl)-2,5-diphenyltetrazolium bromide) colorimetric assay. Cells were incubated for 3 hours with MTT allowing viable cells to metabolize the tetrazolium dye to a purple colored solution.

PLK1 PBD (367-603) = target: T1, PLK1 PBD (367-603) (Homo sapiens, UniProt P53350); assay: Fluorescence polarization assay, PLK1 PBD; format: binding
T1 construct: PLK1 PBD (367-603); purchased BPS Biosciences Inc. (San Diego, Calif.)
T1 sequence (P53350 367-603): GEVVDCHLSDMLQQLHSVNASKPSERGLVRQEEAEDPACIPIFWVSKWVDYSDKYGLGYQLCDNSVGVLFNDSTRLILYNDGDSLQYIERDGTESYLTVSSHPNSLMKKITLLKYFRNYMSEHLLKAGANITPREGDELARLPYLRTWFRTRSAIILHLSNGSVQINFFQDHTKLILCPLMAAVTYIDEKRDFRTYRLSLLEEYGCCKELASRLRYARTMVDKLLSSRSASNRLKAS
Description: (§3) Fluorescence Polarization Assay
(§4) Materials were dissolved in DMSO (10 mM) and diluted from 10 nM to 600 μM (maximum of 6% DMSO tolerance in the assay). […] Incubation was carried out at room temperature for 45 minutes. Fluorescence was measured using a DTX 880 plate reader and Multimode Analysis software (Beckman Coulter, Brea, Calif.). […] Each data point was performed in triplicate for every experiment, and experiments were performed at least three times. An IC50 value for each compound was calculated from linear regression analysis of the plots.

PLK3 PBD (335-646) = target: T2, PLK3 PBD (335-646) (Homo sapiens, UniProt Q9H4B4); assay: Fluorescence polarization assay, PLK3 PBD; settings: PLK3 PBD binding
T2 construct: PLK3 PBD (335-646); purchased BPS Biosciences Inc. (San Diego, Calif.)
T2 sequence (Q9H4B4 335-646): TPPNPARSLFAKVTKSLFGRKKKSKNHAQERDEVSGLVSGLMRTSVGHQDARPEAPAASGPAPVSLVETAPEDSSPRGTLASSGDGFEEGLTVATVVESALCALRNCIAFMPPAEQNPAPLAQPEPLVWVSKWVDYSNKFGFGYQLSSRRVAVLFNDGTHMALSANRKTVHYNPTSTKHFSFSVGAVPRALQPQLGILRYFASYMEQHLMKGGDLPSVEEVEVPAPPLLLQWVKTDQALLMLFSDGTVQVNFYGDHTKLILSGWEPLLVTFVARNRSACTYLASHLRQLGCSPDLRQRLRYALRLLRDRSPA
Description: as §3, §4

[2] = tested on: KRAS mutant lung cancer (A-549) cells; assay: Cell viability assay (MTT), A-549; format: cell-based
Description: A-549 lung cancer cells were maintained in Hams F-12 1× with glutamine (Corning® Cellgro, Manassas, Va.), and supplemented with 10% FBS or Corning® Nu-Serum™ (BD™ Biosciences, Franklin Lakes, N.J.) and 1% penicillin/streptomycin (Invitrogen™) in a humidified incubator and 5% C02 at 37° C.
(§5) Exponentially growing cells were plated in 96-well dishes. Dose response curves were used to treat cells for 72 hours with inhibitors. Following the three-day treatment, cell viability was measured using the MTT (3-(4,5-dimethylthiazol-2-yl)-2,5-diphenyltetrazolium bromide) colorimetric assay. Cells were incubated for 3 hours with MTT allowing viable cells to metabolize the tetrazolium dye to a purple colored solution. Absorbance measurements (595 nm) were quantified using a DTX 880 plate reader and IC50 values were generated for FLIPs.

[3] = tested on: WT Retinal Pigment Epithelial (RPE) cells; assay: Cell viability assay, WT RPE cells; format: cell-based; settings: FIG. 7, FIG. 8
Description: as §1, §2

[4] = tested on: HCT-116 (p53−/−) colon cancer cells; assay: Cell viability assay (MTT), HCT116 p53-/-; format: cell-based
Description: HCT-116 (p53+/+ and −/−) colon cancer cells were maintained DMEM (Invitrogen™, Carlsebad, Calif.) supplemented with 10% FBS or Nu-serum (BD™ Biosciences, Franklin Lakes, N.J.) and 1% penicillin/streptomycin (Invitrogen™) in a humidified incubator and 5% C02 at 37° C.
as §5

[5] = tested on: PTEN deficient prostate cancer (PC3) cells; assay: Cell viability assay (MTT), PC3; format: cell-based; settings: read-out: PCC-3
Description: PC3 prostate cancer cells were maintained in DMEM (Invitrogen™, Carlsebad, Calif.) supplemented with 10% FBS or Corning® Nu-Serum™ (BD™ Biosciences, Franklin Lakes, N.J.) and 1% penicillin/streptomycin (Invitrogen™) in a humidified incubator and 5% C02 at 37° C.
as §2

[6] = tested on: HeLa cervical cancer cells; assay: Cell viability assay (MTT), HeLa; format: cell-based; settings: read-out: HeLa
Description: HeLa cervical cancer cells were obtained from ATCC (Manassas, Va.). […] Cells were maintained in DMEM (Invitrogen™, Carlsebad, Calif.) supplemented with 10% FBS or Corning© Nu-Serum™ (BD™ Biosciences, Franklin Lakes, N.J.) and 1% penicillin/streptomycin (Invitrogen™) in a humidified incubator and 5% CO2 at 37° C.
as §2

[7] = Cell cycle analysis and caspase apoptosis assay; format: cell-based
Text: Disclosed small molecule inhibitors can also encourage apoptosis.

full length PLK1 = target: T3, full length PLK1 (Homo sapiens, UniProt P53350); assay: PLK1 kinase inhibition assay (CycLex ELISA); format: biochemical; settings: 7.5 μM ATP, read-out: PLK1 Kinase Inhibitory Act. IC50
T3 construct: This ELISA assay measures the catalytic activity of full length PLK1 for a defined substrate
T3 sequence (P53350 whole entry): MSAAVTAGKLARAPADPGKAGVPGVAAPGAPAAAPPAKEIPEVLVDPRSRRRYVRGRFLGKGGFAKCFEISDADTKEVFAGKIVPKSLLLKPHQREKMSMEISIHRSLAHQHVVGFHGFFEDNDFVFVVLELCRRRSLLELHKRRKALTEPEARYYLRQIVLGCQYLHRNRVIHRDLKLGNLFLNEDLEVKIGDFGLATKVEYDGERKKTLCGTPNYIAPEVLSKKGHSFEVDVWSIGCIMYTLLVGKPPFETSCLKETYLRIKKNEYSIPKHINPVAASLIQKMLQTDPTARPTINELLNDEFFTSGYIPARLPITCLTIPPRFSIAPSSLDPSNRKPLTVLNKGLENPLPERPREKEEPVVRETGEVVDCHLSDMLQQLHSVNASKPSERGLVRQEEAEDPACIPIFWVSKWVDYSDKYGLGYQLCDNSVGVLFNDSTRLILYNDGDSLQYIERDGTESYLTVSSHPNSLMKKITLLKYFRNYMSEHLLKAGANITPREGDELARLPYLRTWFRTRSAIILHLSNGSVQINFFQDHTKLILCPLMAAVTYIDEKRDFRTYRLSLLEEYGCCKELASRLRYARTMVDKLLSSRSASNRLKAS
Text: PLK1 Kinase Inhibition Assay
The CycLex® Polo-like Kinase 1 Assay/Inhibitor Screening Kit was used to measure catalytic inhibition (MBL Life Science, Nagano, Japan). This ELISA assay measures the catalytic activity of full length PLK1 for a defined substrate, which is detected by an anti-phospho-threonine antibody (PPT-07) and peroxidase coupled secondary antibody. […] Peroxidase catalyzes the conversion of the colorless solution to yellow, which was quantified using a DTX 880 plate reader. Absorbance measurements (450 nm) were plotted to calculate activity in each sample, and % inhibition was calculated in the wells relative to activity in the absence of inhibitor.

[8] = PLK1 PBD binding, fluorescence polarization, read-out: PLK1 IC50
[9] = Table 1, fluorescence polarization, read-out: PLK1 PBD IC50

## CC[C@@H]1C(=O)N(C)c2cnc(Nc3ccc(C(=O)NC4CCN(C)CC4)cc3OC)nc2N1C1CCCC1 [BI-2536, reference compound]
PC3 cells; concentration not given
  cells accumulate in G2/M: ~80%
[1]
  sensitivity of cells containing mutant (C67V) PLK1 (in words): resistant

## CCCCc1ccc(C(=O)Nc2ccc(C(=O)O)cc2)cc1 [SCCP ID No. 5880]
PLK1 PBD (367-603); [8]
  IC50: > 600 µM
PLK1 PBD (367-603); fluorescence polarization
  binding to the PLK1 PBD (in words): did not bind

## CCCCCCc1ccc(C(=O)Nc2ccccc2C(=O)O)cc1 [SCCP ID No. 5881]
PLK1 PBD (367-603); fluorescence polarization
  binding to the PLK1 PBD (in words): low micromolar activity

## CCCCCCc1ccc(C(=O)Nc2cccc(C(=O)O)c2)cc1 [SCCP ID No. 5903]
PLK1 PBD (367-603); [8]
  IC50: 130 ± 3.6 µM
PLK1 PBD (367-603); fold selectivity for PLK1 versus PLK3 PBD
  Selectivity Fold Index: 1.6
PLK3 PBD (335-646)
  IC50: 43.6 ± 1.69 µM

## CCCCCCc1ccc(C(=O)Nc2ncccc2C(=O)O)cc1 [SCCP ID No. 5904]
PLK1 PBD (367-603); [9]
  IC50: > 600 µM

## CCCCCc1ccc(C(=O)Nc2ccccc2C(=O)O)cc1 [SCCP ID No. 5905]
PLK1 PBD (367-603); [8]
  IC50: 224 ± 4.88 µM

## CCCCCCc1ccc(C(=O)Nc2cccc(S(N)(=O)=O)c2)cc1 [SCCP ID No. 5908]
PLK1 PBD (367-603); [8]
  IC50: > 600 µM
PLK1 PBD (367-603); fluorescence polarization
  binding to the PLK1 PBD (in words): No binding was observed

## CCCCCCCCc1ccc(C(=O)Nc2ccccc2C(=O)O)cc1 [SCCP ID No. 5912]
PC3 cells
  cell cycle phenotype (in words): S phase delay
[2]; Homo sapiens, A549, 72 hours
  IC50: 2.8 ± 0.1 µM
PLK1 PBD (367-603); PBD binding
  PLK1 versus PLK3 specificity (in words): relatively equipotent for PLK1 and PLK3 PBD binding
[1]
  sensitivity of cells containing mutant (C67V) PLK1 (in words): sensitive
[3]
  sensitivity of cells containing wild type PLK1 (in words): sensitive
[4]; Homo sapiens, HCT-116, 72 hours
  IC50: 8 ± 1.7 µM

## CCCCCCCCc1ccc(C(=O)NCc2ccccc2C(=O)O)cc1 [SCCP ID No. 5913]
PLK1 PBD (367-603); [9]
  IC50: 105 µM

## CCCCCCCCc1ccc(C(=O)Nc2ccccc2C(=O)OCC)cc1 [SCCP ID No. 5914]
[5]; Homo sapiens, PC-3, 72 h
  IC50: > 100 µM
[6]; Homo sapiens, HeLa, 72 h
  IC50: > 100 µM
PLK1 PBD (367-603); [8]
  IC50: > 600 µM
[7]
  levels of apoptosis (in words): virtually none

## CCCCCCc1ccc(C(=O)Nc2ccc(C)cc2C(=O)O)cc1 [SCCP ID No. 5924]
PLK1 PBD (367-603); [8]
  IC50: > 600 µM
PLK1 PBD (367-603); fluorescence polarization
  binding to the PLK1 PBD (in words): no binding to PLK1
PLK3 PBD (335-646)
  IC50: 24.5 µM

## CCCCCCCCc1ccc(C(=O)Nc2cccc(F)c2C(=O)O)cc1 [SCCP ID No. 5932]
[5]; MTT, 72 hours
  IC50: 11.6 ± 1.2 µM
[2]; 72 hours
  IC50: 2.9 ± 0.5 µM
PLK1 PBD (367-603); [8]
  IC50: 11.1 ± 1.1 µM
[1]
  sensitivity of cells containing mutant (C67V) PLK1 (in words): sensitive
[3]
  sensitivity of cells containing wild type PLK1 (in words): sensitive
Full length PLK1
  IC50: 48.9 µM
[4]; 72 hours
  IC50: 10 ± 2.4 µM

## CCCCCCCCc1ccc(C(=O)Nc2ccc(OC)cc2C(=O)O)cc1 [SCCP ID No. 5935]
PC3 cells
  cell cycle phenotype (in words): G1 delay or arrest
PLK1 PBD (367-603); [8]
  IC50: 5.89 ± 1.25 µM

## CCCCCCCCc1ccc(C(=O)Nc2cc(F)cc(F)c2C(=O)O)cc1 [SCCP ID No. 5938]
PLK1 PBD (367-603); [8]
  IC50: 30.6 ± 3.2 µM

## CCCCCCCCc1ccc(C(=O)Nc2cccc([N+](=O)[O-])c2C(=O)O)cc1 [SCCP ID No. 5939]
PLK1 PBD (367-603); [8]
  IC50: 6.05 ± 1.9 µM

## CCCCCCc1ccc(C(=O)Nc2ccccc2OP(=O)(O)O)cc1 [SCCP ID No. 5940]
PLK1 PBD (367-603); [8]
  IC50: > 600 µM
PLK1 PBD (367-603); fluorescence polarization
  binding to the PLK1 PBD (in words): No binding was observed

## CCCCCCc1ccc(C(=O)Nc2ccccc2O)cc1 [SCCP ID No. 5943]
PLK1 PBD (367-603); [8]
  IC50: > 600 µM
PLK1 PBD (367-603); fluorescence polarization
  binding to the PLK1 PBD (in words): No binding was observed

## CCCCCCCCc1ccc(C(=O)Nc2cccc(C(F)(F)F)c2C(=O)O)cc1 [SCCP ID No. 5945]
[5]; MTT, 72 hours
  IC50: 27.9 ± 2.6 µM
[6]; MTT, 72 hours
  IC50: 20.1 ± 3.1 µM
[2]; 72 hours
  IC50: 13.3 ± 0.8 µM
[4]; 72 hours
  IC50: 24.9 ± 2 µM

## CCCCCCCCc1ccc(C(=O)Nc2cccc(O)c2C(=O)O)cc1 [SCCP ID No. 5946]
[5]; MTT, 72 hours
  IC50: 34.2 ± 2.5 µM
[6]; MTT, 72 hours
  IC50: 33.6 ± 2.6 µM

## CCCCCCCCc1ccc(CNc2ccccc2C(=O)O)cc1 [SCCP ID No. 5953]
PLK1 PBD (367-603); [8]
  IC50: 9.57 ± 2.03 µM

## CCCCCCCCc1ccc(CNc2ccc(C)cc2C(=O)O)cc1 [SCCP ID No. 5961]
PLK1 PBD (367-603); [8]
  IC50: > 600 µM
PLK1 PBD (367-603); fluorescence polarization
  binding to the PLK1 PBD (in words): undetectable
PLK3 PBD (335-646)
  IC50: 157 µM

## CCCCCCCCc1ccc(C(=O)NCCC(=O)O)cc1 [SCCP ID No. 5975]
PLK1 PBD (367-603); [9]
  IC50: > 200 µM

## CCCCCCCCc1ccc(C(=O)NCC(C)C(=O)O)cc1 (centres unmarked) [SCCP ID No. 5976]
PLK1 PBD (367-603); [9]
  IC50: 343 to 450 µM
